Measured values taken from US8900564B2, “Vaccine composition comprising an antigen and a peptide having adjuvant properties” (Valneva Austria GmbH, priority 2000, dated 2014).
Entries after “also recorded” stand apart in the source; their conditions may differ. Ends that are not written are not given here.

Tests used:
[1] = tested on: P388D1 cells (murine monocyte-macrophage antigen presenting cell line); experiment: TRANSloading of murine macrophages: uptake of fluorescein-tagged antigenic peptide with carrier peptide, flow cytometry; type: cell-based; conditions: Example 1, FIG. 1; 2 μg antigenic peptide; carrier at 101.7, 50.9 and 5.09 nmol positive charges; 1 h at 37° C.
Excerpt: To test if the (synthetic antimicrobial) peptide KLKLLLLLKLK (SEQ ID NO: 1) is able to function as “carrier-peptide” for antigens, to TRANSload APCs in vitro, which means enhancing the antigen uptake into APCs, a fluorescently labelled peptide was used as antigenic peptide. It was mixed with diverse concentrations of KLKLLLLLKLK (SEQ ID NO: 1) and other previously described “carrier-peptides” as indicated.
To compare the efficiency of peptide delivery of these diverse “carrier-peptides”, the amount of peptide uptake into APCs was monitored by incubating P388D1 cells (murine monocyte-macrophage antigen presenting cell line; purchased from ATCC (TIB-63)) for 1 h at 37° C. with a constant amount of fluorescein-tagged peptide alone or in combination with diverse “carrier-peptides” at concentrations indicated. Before analysing the cells by flow cytometry, the cells were washed extensively to remove free peptide. The relative amount of fluorescein-tagged peptide taken up by the cells was measured by flow cytometry.
The antigenic peptide used is an influenza-haemagglutinin-derived MHC class I (Kd) binding peptide (Buschle, M. (1997)). 2 μg of this fluorescein-tagged antigenic peptide (LFEAIEGFI) (SEQ ID NO:22) were mixed with 3 different amounts of each carrier peptide tested at concentrations representing 101.7, 50.9 and 5.09 nmol positive charges. […]

[2] = tested on: IFN-γ-producing specific cells (lymph node cells); experiment: Induction of peptide-specific T cell responses in vivo, IFN-γ ELISpot of lymph node cells after vaccination with TRP-2 peptide; parameters: species or system mice (C57BL/6)
Experimental: For testing the ability of the (synthetic antimicrobial) peptide KLKLLLLLKLK (SEQ ID NO: 1) to enhance the induction of peptide-specific T cell responses in vivo, groups of 4 mice (C57BL/6, female, 8 weeks of age, H-2b) were injected subcutaneously into the flank 3 times (days 0, 28, and 56), with an antigenic melanoma peptide (100 μg) derived from TRP-2 (mouse tyrosinase related protein-2) alone or in combination with either poly-Larginine or the (synthetic antimicrobial) peptide KLKLLL. LKLK (SEQ ID NO: 1) as “carrier peptide”. The amounts of the (synthetic antimicrobial) peptide KLKLLLLLKLK (SEQ ID NO: 1) used represent four different amounts at concentrations representing the equal amount (100 μg) of poly-L-arginine in terms of μg, the equal (168 μg), the double (336 μg) and the triple (504 μg) amount of poly-L-arginine in terms of positive charges. The groups of mice were injected as follows (amounts indicated/per mouse). • (1) 100 μg peptide • (2) 100 μg peptide+100 μg poly-L-arginine (pR 60) • (3) 100 μg peptide+100 μg KLKLLLLLKLK (SEQ ID NO: 1) • (4) 100 μg peptide+168 μg KLKLLLLLKLK (SEQ ID NO: 1) • (5) 100 μg peptide+336 μg KLKLLLLLKLK (SEQ ID NO: 1) • (6) 100 μg peptide+504 μg KLKLLLLLKLK (SEQ ID NO: 1) […]

Staphylococcus aureus = conditions: Staphylococcus aureus-infected mice; cited from earlier work
human neutrophils = conditions: via cell surface calreticulin; cited from earlier work

Substance | fluorescence of TRANSloaded cells (uptake of fluorescein-tagged peptide LFEAIEGFI) [1] | IFN-γ-producing T cells specific for the carrier peptide itself, ELISpot ([2]; ELISpot-assay) | IFN-γ-producing specific cells (TRP-2 peptide-specific), ELISpot ([2]; FIG. 3, s.c. days 0, 28, 56, 100 μg TRP-2 peptide plus 100-504 μg carrier, 12 days after 3rd vaccination, versus peptide alone or with poly-L-arginine) | chemotherapeutic activity (Staphylococcus aureus) | superoxide anion (O2−) production (human neutrophils)
KLKLLLLLKLK [synthetic antimicrobial peptide used as carrier peptide/adjuvant] | high and intense fluorescence | does not elicit IFN-γ-producing peptide-specific T cells | many more IFN-γ-producing specific cells; also recorded: enhances the induction of peptide-specific T cell responses in vivo | – | –
KLKLLLLLKLK-NH2 [synthetic antimicrobial peptide, amidated form] | – | – | – | significant chemotherapeutic activity | activated to produce the superoxide anion
